According to paper PMC3446931, “Cyclohexyl Ketone Inhibitors of Pin1 Dock in a Trans-Diaxial Cyclohexane Conformation” (PLoS ONE, 2012):

Molecular target: Pin1 (Homo sapiens, UniProt Q13526)
Assay: alpha-chymotrypsin protease-coupled PPIase assay
Type: biochemical

Sequence of Pin1 (Q13526 whole entry): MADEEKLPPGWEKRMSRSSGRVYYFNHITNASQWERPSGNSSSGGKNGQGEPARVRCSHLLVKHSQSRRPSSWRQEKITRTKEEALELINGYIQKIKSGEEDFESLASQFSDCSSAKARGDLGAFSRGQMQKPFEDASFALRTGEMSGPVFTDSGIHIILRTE

`CC(=O)NC(COP(=O)(O)O)C(=O)C1CCCCC1C(=O)NCCc1c[nH]c2ccccc12` (racemic) [rac-2] gave an IC50 of 61 ± 8 µM.
`CC(=O)N[C@@H](COP(=O)(O)O)C(=O)[C@@H]1CCCC[C@H]1C(=O)NCCc1c[nH]c2ccccc12` [compound 1, 1] was tested, and the IC50 was 260 ± 30 µM.
